Values quoted from earlier work as cited in patent publication EP4755400A1, “ANTIBODY-DRUG CONJUGATE CONTAINING GLYCOSYLPYRIDINE LINKER” (Novocodex Biopharmaceuticals Co., Ltd., priority 2023, dated 2025).

Test system: human carcinoma lines

IC50: 0.1 to 0.2 µM
Structure (SMILES): COc1cccc2c1C(=O)c1c(O)c3c(c(O)c1C2=O)C[C@@](O)(C(=O)CO)C[C@@H]3O[C@H]1C[C@H](N)[C@H](O)[C@H](C)O1 [doxorubicin]
